What was measured:
[1] = system: Phakopsora pachyrhizi (F129L); assay: Protective control of soybean rust on soybeans (PHAKPA P2); assay type: in vivo; conditions: soybean rust F129L; for % PHAKPA (F129L) Disease level P2 at 4 ppm: protective P2, 4 ppm; for % PHAKPA (F129L) Disease level P2 at 16 ppm: protective P2, 16 ppm
[2] = system: Phakopsora pachyrhizi (F129L); assay: Protective control of soybean rust on soybeans (PHAKPA P6); assay type: in vivo; conditions: soybean rust F129L; for % PHAKPA (F129L) Disease level P6 at 4 ppm: protective P6, 4 ppm; for % PHAKPA (F129L) Disease level P6 at 16 ppm: protective P6, 16 ppm

Row | SMILES | % PHAKPA (F129L) Disease level P2 at 4 ppm [1] | % PHAKPA (F129L) Disease level P2 at 16 ppm [1] | % PHAKPA (F129L) Disease level P6 at 4 ppm [2] | % PHAKPA (F129L) Disease level P6 at 16 ppm [2]
1 | C=Cc1cccc(/C(=N\OC)C(=O)NC)c1CO/N=C(\C)c1cccc(C(F)(F)F)c1 [compound 14] | 6% | 0% | 11% | 1%
2 | CNC(=O)/C(=N/OC)c1cccc(C)c1CO/N=C(\C)c1ccc(C#N)c(C(F)(F)F)c1 [compound 17] | 70% | 50% | 63% | 57%
3 | CO/N=C(/C(=O)OC)c1cccc(C)c1CO/N=C(\C)c1cccc(C(F)F)c1 [compound 19] | 87% | 0% | 87% | 1%
4 | CNC(=O)/C(=N/OC)c1cccc(C)c1CO/N=C(/c1ccc(Cl)cc1)C(F)F [compound 22] | 100% | 90% | 100% | 93%
5 | CO/N=C(/C(=O)OC)c1cccc(CF)c1CO/N=C(\C)c1cccc(C(F)(F)F)c1 [compound 25] | 16% | 3% | 50% | 2%
6 | CNC(=O)/C(=N/OC)c1cccc(CF)c1CO/N=C(\C)c1cccc(C(F)(F)F)c1 [compound 26] | 12% | 0% | 19% | 1%
7 | CNC(=O)/C(=N/OC)c1cccc(C)c1CO/N=C(\C)c1cccc(OC(F)(F)F)c1 [compound 29] | – | 0% | – | 0%
8 | CNC(=O)/C(=N/OC)c1cccc(C)c1CO/N=C(\C)c1cc(C(F)(F)F)cc(C(F)(F)F)c1 [compound 32] | 80% | 50% | 73% | 43%
9 | CO/N=C(/C(=O)OC)c1cccc(C)c1CO/N=C(\C)c1cc(Cl)cc(C(F)(F)F)c1 [compound 33] | 50% | 33% | 60% | 75%
10 | CO/N=C(/C(=O)OC)c1cccc(C)c1CO/N=C(\C)c1cc(C(F)(F)F)cc(C(F)(F)F)c1 [compound 34] | 100% | 90% | 90% | 83%
11 | CNC(=O)/C(=N/OC)c1cccc(C)c1CO/N=C(\C)c1ccccc1C(F)(F)F [compound 38] | 37% | 4% | 47% | 1%
12 | CNC(=O)/C(=N/OC)c1cccc(C)c1CO/N=C(\C)c1ccc(C(F)(F)F)cc1 [compound 39] | 30% | 4% | 15% | 2%
13 | CO/N=C(/C(=O)OC)c1cccc(C)c1CO/N=C(\C)c1ccc(Cl)c(Cl)c1 [compound 40] | 40% | 18% | 63% | 22%
14 | CNC(=O)/C(=N/OC)c1cccc(C)c1CO/N=C(\C)c1cccc(-c2cc(C)on2)c1 [compound 42] | 60% | 23% | 60% | 20%
15 | CO/N=C(/C(=O)OC)c1cccc(C)c1CO/N=C(\C)c1cccc(-c2cc(C)on2)c1 [compound 43] | 100% | 100% | 97% | 87%
16 | CNC(=O)/C(=N/OC)c1cccc(C)c1CO/N=C(\C)c1cccc(N2CC(F)(F)C2)c1 [compound 44] | 77% | 17% | 77% | 21%
17 | CNC(=O)/C(=N/OC)c1cccc(C)c1CO/N=C(\C)c1cc(C#N)cc(C(F)(F)F)c1 [compound 46] | 63% | 50% | 90% | 57%
18 | CNC(=O)/C(=N/OC)c1cccc(C)c1CO/N=C(\C)c1ccc(F)c(C(F)(F)F)c1 [compound 47] | 13% | 0% | 12% | 0%

Row | SMILES | % PHAKPA (F129L) Disease level P2 at 4 ppm [1] | % PHAKPA (F129L) Disease level P2 at 16 ppm [1] | % PHAKPA (F129L) Disease level P6 at 4 ppm [2] | % PHAKPA (F129L) Disease level P6 at 16 ppm [2]
19 | CO/N=C(/C(=O)OC)c1cccc(C)c1CO/N=C(\C)c1cc(C#N)cc(C(F)(F)F)c1 [compound 48] | 100% | 80% | 100% | 67%
20 | CO/N=C(/C(=O)OC)c1cccc(C)c1CO/N=C(\C)c1ccc(F)c(C(F)(F)F)c1 [compound 49] | 60% | 18% | 60% | 7%
21 | CNC(=O)/C(=N/OC)c1cccc(C)c1CO/N=C(\C)c1cc(F)cc(C(F)(F)F)c1 [compound 50] | 2% | 1% | 6% | 0%
22 | CO/N=C(/C(=O)OC)c1cccc(C)c1CO/N=C(\C)c1cc(F)cc(C(F)(F)F)c1 [compound 51] | 28% | 2% | 15% | 0%
23 | CO/N=C(/C(=O)OC)c1cccc(C)c1CO/N=C(\C)c1cccc(C#CC(F)(F)F)c1 [compound 52] | 63% | 28% | 90% | 43%
24 | C#Cc1cccc(/C(C)=N/OCc2c(C)cccc2/C(=N\OC)C(=O)OC)c1 [compound 53] | 63% | 17% | 100% | 47%
25 | C#Cc1cccc(/C(C)=N/OCc2c(C)cccc2/C(=N\OC)C(=O)NC)c1 [compound 54] | 0% | 1% | 20% | 0%
26 | C#Cc1cc(F)cc(/C(C)=N/OCc2c(C)cccc2/C(=N\OC)C(=O)NC)c1 [compound 55] | 3% | 1% | 13% | 5%
27 | CNC(=O)/C(=N/OC)c1cccc(C)c1CO/N=C(\C)c1cccc(C#CC(F)(F)F)c1 [compound 57] | 25% | 8% | 43% | 15%
28 | CO/N=C(/C(=O)OC)c1cccc(C)c1CO/N=C(\C)c1ccc(Cl)c(C(F)(F)F)c1 [compound 59] | 67% | 20% | 63% | 11%
29 | CCc1cccc(/C(=N\OC)C(=O)OC)c1CO/N=C(\C)c1cccc(C(F)(F)F)c1 [compound 61] | 70% | 15% | 90% | 18%
30 | CCc1cccc(/C(=N\OC)C(=O)NC)c1CO/N=C(\C)c1cccc(C(F)(F)F)c1 [compound 62] | 43% | 0% | 60% | 3%
31 | CO/N=C(/C(=O)OC)c1cccc(C)c1CO/N=C(\C)c1ccc(-c2cc(C)on2)cc1 [compound 63] | 90% | 77% | 93% | 77%
32 | CNC(=O)/C(=N/OC)c1cccc(C)c1CO/N=C(\C)c1ccc(-c2cc(C)on2)cc1 [compound 64] | 87% | 73% | 80% | 43%
33 | CO/N=C(/C(=O)OC)c1cccc(C)c1CO/N=C(\C)c1cc(C)cc(C(F)(F)F)c1 [compound 65] | 93% | 77% | 100% | 87%
34 | CO/N=C(/C(=O)OC)c1cccc(C)c1CO/N=C(\C)c1cccc(-c2noc(C(F)(F)F)n2)c1 [compound 66] | 100% | 70% | 93% | 87%
35 | CNC(=O)/C(=N/OC)c1cccc(C)c1CO/N=C(\C)c1cccc(-c2noc(C(F)(F)F)n2)c1 [compound 67] | 67% | 2% | 80% | 30%
36 | CNC(=O)/C(=N/OC)c1cccc(C)c1CO/N=C(\C)c1cccc(C(F)(F)F)c1F [compound 69] | 2% | 0% | 13% | 0%

Source: patent US20230172204A1 (BASF SE, priority 2020, published 2023)
